Columns and labels:
[1] = Particle size distribution by laser diffraction (Mastersizer 2000); type: physicochemical
Method: In the invention, Dpn is a unit referring to a particle size of crystal, and n is a value covering from 1 to 100. For example, Dp10 is defined as a diameter of the particle where particles are accumulated from the one having a smaller size and reach to the accumulated particle volume of 10%.
Add 1000 mL of water to 5 g of Triton X-100, mix well. Add 0.1 g of bicalutamide and sonicate for 15 minutes, the filter using 0.45 μm membrane filter and use this solution as the dispersant. Rinse the dispersion unit and the measurement instrument with the dispersant and replace it in the instruments with the fresh one, then measure background. After weighing, suspend about 0.05 g of bicalutamide crystals in the 20 ml of dispersant and sonicate for 5 minutes, and make up with the dispersant to 100 mL. Redisperse this suspension with a pipet and pour this sample into the dispersion unit so that an obscuration is 10.0 to 20.0%. After the stabilizing period of 12 minutes, start the measurement under the following condition. Determine 10% diameter, 50% diameter, and 90% diameter according to an integrated distribution curve to be Dp10, Dp50 and Dp90, respectively.
• Instrument model: Laser diffraction particle size analyzer Mastersizer 2000 (Malvern) • Dispersion unit: Hydro2000S • Stirrer speed of dispersion unit: 2300 rpm • Particle Refraction Index of sample: 1.670 Absorption: 0.001 • Dispersant Refraction Index: 1.330 • Analysis model: General purpose • Calculation sensitivity: Enhanced • Particle shape: Irregular • Size range: 0.020-2000.000 μm • Measurement integration period: 12 seconds • Backgroupd integration period: 12 seconds (Specific Surface Area)
With using the above-mentioned laser diffraction particle size distribution analyzer (Mastersizer 2000 (Malvern)), a particle size distribution was measured under the same conditions mentioned above.

[2] = Specific surface area by nitrogen gas absorption (BET equation, COULTER SA3100); type: physicochemical
Method: The specific surface area in the invention is defined as a surface area per 1 g of particles, and represented by a value measured by the following method.
A sample is deaerated overnight in a vacuum dryer at 40° C. as a pre-treatment before being subjected to a measurement. The measurement is conducted as follows: a given amount of an absorbing gas (nitrogen gas) is absorbed by a sample, the values of a relative pressure (P/PO) and an absorbed gas volume are determined in each absorption step, and then a specific surface area is calculated according to the BET equation using the values. COULTER™ SA3100™ Series Surface Area and Pore size Analyzer is used as a measurement device. After measuring the sample mentioned above, the specific surface area at around the relative pressure of 0.05 to 0.2 is calculated.
Furthermore, the specific surface area of the crystals obtained by one time milling was measured with the COULTER™ SA3100™ Series Surface Area and Pore size Analyzer mentioned above under the same conditions mentioned above.

[3] = crystals as obtained by crystallization, not milled
[4] = crystals obtained by two times milling (CT-401 ATOMIZER)
[5] = crystals obtained by one time milling (spiral jet-mill 50AS)

| Structure (SMILES) | Dp10 (particle size) [1, 3] [μm] | Dp50 (particle size) [1, 3] [μm] | Dp90 (particle size) [1, 3] [μm] | Dp10 (particle size) [1, 4] [μm] | Dp50 (particle size) [1, 4] [μm] | Dp90 (particle size) [1, 4] [μm] | specific surface area [2, 3] [m^2/g] | specific surface area ([2]; crystals obtained by one time milling, relative pressure 0.05 to 0.2) [m^2/g] | Dp10 (particle size) [1, 5] [μm] | Dp50 (particle size) [1, 5] [μm] | Dp90 (particle size) [1, 5] [μm] |
| --- | --- | --- | --- | --- | --- | --- | --- | --- | --- | --- | --- |
| CC(O)(CS(=O)(=O)c1ccc(F)cc1)C(=O)Nc1ccc(C#N)c(C(F)(F)F)c1 (centres unmarked) [Comparative Example 1, bicalutamide] | 45.6 | 90.7 | 177.6 | 3.1 | 15.9 | 57.8 | – | – | – | – | – |
| CC(O)(CS(=O)(=O)c1ccc(F)cc1)C(=O)Nc1ccc(C#N)c(C(F)(F)F)c1 (centres unmarked) [Comparative Example 2, bicalutamide] | 39.5 | 119.6 | 273.1 | – | – | – | 0.2 | – | – | – | – |
| CC(O)(CS(=O)(=O)c1ccc(F)cc1)C(=O)Nc1ccc(C#N)c(C(F)(F)F)c1 (centres unmarked) [Example 1, bicalutamide] | 5.3 | 14.5 | 30.6 | – | – | – | – | 1.8 | 1.8 | 4.2 | 10.5 |
| CC(O)(CS(=O)(=O)c1ccc(F)cc1)C(=O)Nc1ccc(C#N)c(C(F)(F)F)c1 (centres unmarked) [bicalutamide] | 45.6 | 90.7 | 177.6 | – | – | – | – | – | – | – | – |
